Patent US5981558A, “DC107 derivatives” (Kyowa Hakko Kogyo Co., Ltd., priority 1996, dated 1999)

The compounds below were run on HeLa S3 cells (assay: HeLa S3 Cell Growth Inhibition Test). Details: HeLa S3; 72 hours incubation; Neutral Red; read-out: IC50, HeLa S3 cell growth inhibition.
Assay type: cell-based
Protocol: In each well of a 96-well microtiter plate was placed 0.1 mL of HeLa S3 cells having a concentration of 8×10^3 cells/mL and prepared in an MEM culture medium containing 10% fetal bovine serum and 2 mM glutamine. After the cells were incubated overnight at 37° C. in a carbon dioxide incubator, a test compound suitably diluted with a medium was added to the wells in an amount of 0.05 mL for each well. The cells were incubated at 37° C. for 72 hours in a carbon dioxide incubator. After the culture supernatant was removed, 0.1 mL of a culture medium containing 0.02% Neutral Red was added to each well. The cells were then incubated at 37° C. for 1 hour in a carbon dioxide incubator to dye the cells. After the culture supernatant was removed, each residue was rinsed once with physiological saline and the pigment was extracted with 0.001 N hydrochloric acid/30% ethanol. The absorbance at 550 nm of each extract was measured with a microplate reader. The drug concentration required for the 50% inhibition of cell growth, which is referred to as IC50, was calculated by comparing the absorbance for untreated cells with those for cells treated with the drug in known concentrations.

SMILES | IC50 [nM]
COC(=O)NCC(=O)OCSC(=O)C(C)(O)C12CC/C(C)=C/C(OC3CCCCO3)C(=O)/C=C/C=C\c3csc(n3)C(C)N(C(=O)C1)[S+]2[O-] (single isomer, unassigned) [Compound 42] | 47
COC(=O)[C@H](CCC(=O)OCSC(=O)C(C)(O)C12CC/C(C)=C/C(OC3CCCCO3)C(=O)/C=C/C=C\c3csc(n3)C(C)N(C(=O)C1)[S+]2[O-])NC(=O)[C@@]12O[C@@H](CO)[C@@H](O)[C@@H]1OC(C)(C)O2 (single isomer, unassigned) [Compound 65] | 3.1
COC(=O)[C@H](CCC(=O)OCSC(=O)C(C)(O)C12CC/C(C)=C/C(OC3CCCCO3)C(=O)/C=C/C=C\c3csc(n3)C(C)N(C(=O)C1)[S+]2[O-])NC(=O)[C@@]12O[C@@H](CO)[C@@H](O)[C@@H]1OC(C)(C)O2 (single isomer, unassigned) [Compound 66] | 48

Same assay, conditions: Homo sapiens, HeLa S3, 72 h, HeLa S3; 72 hours incubation; Neutral Red; read-out: IC50, HeLa S3 cell growth inhibition

SMILES | IC50 [nM]
COC(=O)CCC(=O)OCSC(=O)C(C)(O)C12CCC(C)=CC(O)C(=O)C=CC=Cc3csc(n3)C(C)N(C(=O)C1)[S+]2[O-] (stereo not drawn) [Compound 1] | 7
COc1ccc(COCC(=O)OCSC(=O)C(C)(O)C23CCC(C)=CC(O)C(=O)C=CC=Cc4csc(n4)C(C)N(C(=O)C2)[S+]3[O-])cc1 (stereo not drawn) [Compound 13] | 11
CC1=CC(O)C(=O)C=CC=Cc2csc(n2)C(C)N2C(=O)CC(C(C)(O)C(=O)SCOC(=O)CNC(=O)[C@@]34O[C@H]5COC(C)(C)O[C@H]5[C@@H]3OC(C)(C)O4)(CC1)[S+]2[O-] (stereo partly drawn) [Compound 19] | 57
CC1=CC(O)C(=O)C=CC=Cc2csc(n2)C(C)N2C(=O)CC(C(C)(O)C(=O)SCOC(=O)CCNC(=O)[C@@]34O[C@H]5COC(C)(C)O[C@H]5[C@@H]3OC(C)(C)O4)(CC1)[S+]2[O-] (stereo partly drawn) [Compound 20] | 110
COC(=O)[C@H](CCC(=O)OCSC(=O)C(C)(O)C12CCC(C)=CC(O)C(=O)C=CC=Cc3csc(n3)C(C)N(C(=O)C1)[S+]2[O-])NC(=O)c1ccc(OC(C)=O)cc1 (stereo partly drawn) [Compound 26] | 68
CC(=O)Oc1ccc(C(=O)OCSC(=O)C(C)(O)C23CCC(C)=CC(O)C(=O)C=CC=Cc4csc(n4)C(C)N(C(=O)C2)[S+]3[O-])cc1 (stereo not drawn) [Compound 30] | 15

Same assay, conditions: Homo sapiens, HeLa S3, 72 h, footnote *: Value after 72 hours of drug treatment; read-out: IC50, HeLa S3 cell growth inhibition

SMILES | IC50 [nM]
CC1=CC(O)C(=O)C=CC=Cc2csc(n2)C(C)N2C(=O)CC(C(C)(O)C(=O)SCOC(=O)c3ccc(C(=O)O)cc3)(CC1)[S+]2[O-] (stereo not drawn) [Compound 9] | 150

Same assay, conditions: Homo sapiens, HeLa S3, 72 h, read-out: IC50, HeLa S3 cell growth inhibition, HeLa S3; 72 hours incubation; Neutral Red

SMILES | IC50 [nM]
COC(=O)CCCCC(=O)OCSC(=O)C(C)(O)C12CCC(C)=CC(O)C(=O)C=CC=Cc3csc(n3)C(C)N(C(=O)C1)[S+]2[O-] (stereo not drawn) [Compound 2] | 7.5
CC1=CC(O)C(=O)C=CC=Cc2csc(n2)C(C)N2C(=O)CC(C(C)(O)C(=O)SCOC(=O)C(C)(C)NC(=O)OC(C)(C)C)(CC1)[S+]2[O-] (stereo not drawn) [Compound 5] | 55
CC1=CC(O)C(=O)C=CC=Cc2csc(n2)C(C)N2C(=O)CC(C(C)(O)C(=O)SCOC(=O)c3ccccc3)(CC1)[S+]2[O-] (stereo not drawn) [Compound 6] | 18
CC1=CC(O)C(=O)C=CC=Cc2csc(n2)C(C)N2C(=O)CC(C(C)(O)C(=O)SCOC(=O)CCNC(=O)[C@H]3O[C@@H]4OC(C)(C)O[C@@H]4[C@H]4OC(C)(C)O[C@H]43)(CC1)[S+]2[O-] (stereo partly drawn) [Compound 21] | 380
COC(=O)N[C@@H](CCC(=O)OCSC(=O)C(C)(O)C12CCC(C)=CC(O)C(=O)C=CC=Cc3csc(n3)C(C)N(C(=O)C1)[S+]2[O-])C(=O)OC (stereo partly drawn) [Compound 23] | 58
CC1=CC(O)C(=O)C=CC=Cc2csc(n2)C(C)N2C(=O)CC(C(C)(O)C(=O)SCOC(=O)CCCN3C(=O)C=CC3=O)(CC1)[S+]2[O-] (stereo not drawn) [Compound 28] | 750

Same assay, conditions: read-out: IC50, HeLa S3 cell growth inhibition; HeLa S3; 72 hours incubation; Neutral Red

SMILES | IC50 [nM]
C/C1=C\C(OC2CCCCO2)C(=O)/C=C/C=C\c2csc(n2)C(C)N2C(=O)CC(C(C)(O)C(=O)SCOC(=O)CNC(=O)[C@@]34O[C@@H](CO)[C@@H](O)[C@@H]3OC(C)(C)O4)(CC1)[S+]2[O-] (single isomer, unassigned) [Compound 62] | 71
C/C1=C\C(OC2CCCCO2)C(=O)/C=C/C=C\c2csc(n2)C(C)N2C(=O)CC(C(C)(O)C(=O)SCOC(=O)CNC(=O)[C@@]34O[C@@H](CO)[C@@H](O)[C@@H]3OC(C)(C)O4)(CC1)[S+]2[O-] (single isomer, unassigned) [Compound 63] | 270
